As usually defined, the Ki is a dissociation constant, usually derived from enzyme kinetics or from competition with a known ligand.

This assay addresses Enoyl-[acyl-carrier-protein] reductase [NADH] (Mycobacterium tuberculosis, UniProt P9WGR1, S94A).

In the case of `CC(C)[C@H]1OC(=O)[C@H](C)[C@H](O)[C@H](Cc2cccnc2)NC(=O)[C@@H](NC(=O)c2ncccc2O)[C@@H](C)OC1=O`, the affinity corresponds to a Ki of 71 µM.
